Columns and labels:
[1] = biological target: mycoAC (adenylyl cyclase Rv1625c) (Mycobacterium tuberculosis, UniProt P9WQ35); format: biochemical
[2] = biological target: P9WQ35

Row | Molecule | acceptance as a substrate [1] | AC activity of the bacterial membrane preparation [2]
1 | Mn-GTP | not accepted as a substrate | 
2 | mycoAC holoenzyme expressed in E. coli (N-terminal His6-tag) (protein) MRGSHHHHHHGSMAARKCGAPPIAADGSTRRPDCVTAVRTQARAPTQHYAESVARRQRVLTITAWLAVVVTGSFALMQLATGAGGWYIALINVFTAVTFAIVPLLHRFGGLVAPLTFIGTAYVAIFAIGWDVGTDAGAQFFFLVAAALVVLLVGIEHTALAVGLAAVAAGLVIALEFLVPPDTGLQPPWAMSVSFVLTTVSACGVAVATVWFALRDTARAEAVMEAEHDRSEALLANMLPASIAERLKEPERNIIADKYDEASVLFADIVGFTERASSTAPADLVRFLDRLYSAFDELVDQHGLEKIKVSGDSYMVVSGVPRPRPDHTQALADFALDMTNVAAQLKDPRGNPVPLRVGLATGPVVAGVVGSRRFFYDVWGDAVNVASRMESTDSVGQIQVPDEVYERLKDDFVLRERGHINVKGKGVMRTWYLIGRKVAADPGEVRGAEPRTAGV |  | 19 nmol cAMP/mg·min^-1

Source: patent US20050048603A1 (priority 2001, published 2005)
